Test results: ChEMBL document CHEMBL5505997, “Synthesis and biological evaluation of novel peptidomimetic inhibitors of the coronavirus 3C-like protease” (Eur J Med Chem, 2024)

What was measured:
SARS-CoV-2 [1] = assay: Antiviral activity against SARS-CoV-2 WA1 harboring NSP5 E166V mutant infected in HEK293T cells measured after 48 hrs by Nano-Glo luciferase assay; type: functional, organism-based, Severe acute respiratory syndrome coronavirus 2
SARS-CoV-2 [2] = assay: Antiviral activity against SARS-CoV-2 WA1 harboring NSP5 L50F/E166V mutant infected in HEK293T cells measured after 48 hrs by Nano-Glo luciferase assay; type: functional, organism-based, Severe acute respiratory syndrome coronavirus 2
SARS-CoV-2 [3] = assay: Antiviral activity against SARS-CoV-2 WA1 harboring NSP5 L50F/E166A/L167F mutant infected in HEK293T cells measured after 48 hrs by Nano-Glo luciferase assay; type: functional, organism-based, Severe acute respiratory syndrome coronavirus 2
SARS-CoV-2 [4] = assay: Selectivity ratio of EC50 for antiviral activity against SARS-CoV-2 WA1 harboring NSP5 E166V mutant infected in HEK293T cells to EC50 for antiviral activity against wild type SARS-CoV-2 WA1 infected in HEK293T cells; type: functional
SARS-CoV-2 [5] = assay: Selectivity ratio of EC50 for antiviral activity against SARS-CoV-2 WA1 harboring NSP5 L50F/E166V mutant infected in HEK293T cells to EC50 for antiviral activity against wild type SARS-CoV-2 WA1 infected in HEK293T cells; type: functional
SARS-CoV-2 [6] = assay: Selectivity ratio of EC50 for antiviral activity against SARS-CoV-2 WA1 harboring NSP5 L50F/E166A/L167F mutant infected in HEK293T cells to EC50 for antiviral activity against wild type SARS-CoV-2 WA1 infected in HEK293T cells; type: functional
SARS-CoV-2 [7] = assay: Antiviral activity against SARS-CoV-2 Omicron BA.1 harboring NSP5 E166V mutant infected in HEK293T cells measured after 48 hrs by Nano-Glo luciferase assay; type: functional, organism-based, Severe acute respiratory syndrome coronavirus 2
SARS-CoV-2 [8] = assay: Antiviral activity against SARS-CoV-2 Omicron BA.1 harboring NSP5 L50F/E166V mutant infected in HEK293T cells measured after 48 hrs by Nano-Glo luciferase assay; type: functional, organism-based, Severe acute respiratory syndrome coronavirus 2
SARS-CoV-2 [9] = assay: Antiviral activity against SARS-CoV-2 Omicron BA.1 harboring NSP5 L50F/E166A/L167F mutant infected in HEK293T cells measured after 48 hrs by Nano-Glo luciferase assay; type: functional, organism-based, Severe acute respiratory syndrome coronavirus 2
SARS-CoV-2 [10] = assay: Selectivity ratio of EC50 for antiviral activity against SARS-CoV-2 Omicron BA.1 harboring NSP5 E166V mutant infected in HEK293T cells to EC50 for antiviral activity against wild type SARS-CoV-2 Omicron BA.1 infected in HEK293T cells; type: functional
SARS-CoV-2 [11] = assay: Selectivity ratio of EC50 for antiviral activity against SARS-CoV-2 Omicron BA.1 harboring NSP5 L50F/E166V mutant infected in HEK293T cells to EC50 for antiviral activity against wild type SARS-CoV-2 Omicron BA.1 infected in HEK293T cells; type: functional
SARS-CoV-2 [12] = assay: Selectivity ratio of EC50 for antiviral activity against SARS-CoV-2 Omicron BA.1 harboring NSP5 L50F/E166A/L167F mutant infected in HEK293T cells to EC50 for antiviral activity against wild type SARS-CoV-2 Omicron BA.1 infected in HEK293T cells; type: functional
SARS-CoV-2 [13] = assay: Antiviral activity against SARS-CoV-2 WA1 harboring NSP5 T21I mutant infected in HEK293T cells measured after 48 hrs by Nano-Glo luciferase assay; type: functional, organism-based, Severe acute respiratory syndrome coronavirus 2
SARS-CoV-2 [14] = assay: Antiviral activity against SARS-CoV-2 WA1 harboring NSP5 T21I/E166V mutant infected in HEK293T cells measured after 48 hrs by Nano-Glo luciferase assay; type: functional, organism-based, Severe acute respiratory syndrome coronavirus 2
SARS-CoV-2 [15] = assay: Antiviral activity against SARS-CoV-2 Omicron BA.1 harboring NSP5 T21I mutant infected in HEK293T cells measured after 48 hrs by Nano-Glo luciferase assay; type: functional, organism-based, Severe acute respiratory syndrome coronavirus 2
SARS-CoV-2 [16] = assay: Antiviral activity against SARS-CoV-2 Omicron BA.1 harboring NSP5 T21I/E166V mutant infected in HEK293T cells measured after 48 hrs by Nano-Glo luciferase assay; type: functional, organism-based, Severe acute respiratory syndrome coronavirus 2
SARS-CoV-2 [17] = assay: Selectivity ratio of EC50 for antiviral activity against SARS-CoV-2 WA1 harboring NSP5 T21I mutant infected in HEK293T cells to EC50 for antiviral activity against wild type SARS-CoV-2 WA1 infected in HEK293T cells; type: functional
SARS-CoV-2 [18] = assay: Selectivity ratio of EC50 for antiviral activity against SARS-CoV-2 WA1 harboring NSP5 T21I/E166V mutant infected in HEK293T cells to EC50 for antiviral activity against wild type SARS-CoV-2 WA1 infected in HEK293T cells; type: functional
SARS-CoV-2 [19] = assay: Selectivity ratio of EC50 for antiviral activity against SARS-CoV-2 Omicron BA.1 harboring NSP5 T21I mutant infected in HEK293T cells to EC50 for antiviral activity against wild type SARS-CoV-2 Omicron BA.1 infected in HEK293T cells; type: functional
SARS-CoV-2 [20] = assay: Selectivity ratio of EC50 for antiviral activity against SARS-CoV-2 Omicron BA.1 harboring NSP5 T21I/E166V mutant infected in HEK293T cells to EC50 for antiviral activity against wild type SARS-CoV-2 Omicron BA.1 infected in HEK293T cells; type: functional

| SMILES | EC50 (SARS-CoV-2 [1]) | EC50 (SARS-CoV-2 [2]) | EC50 (SARS-CoV-2 [3]) | Ratio EC50 (SARS-CoV-2 [4]) | Ratio EC50 (SARS-CoV-2 [5]) | Ratio EC50 (SARS-CoV-2 [6]) | EC50 (SARS-CoV-2 [7]) | EC50 (SARS-CoV-2 [8]) | EC50 (SARS-CoV-2 [9]) | Ratio EC50 (SARS-CoV-2 [10]) | Ratio EC50 (SARS-CoV-2 [11]) | Ratio EC50 (SARS-CoV-2 [12]) | EC50 (SARS-CoV-2 [13]) | EC50 (SARS-CoV-2 [14]) | EC50 (SARS-CoV-2 [15]) | EC50 (SARS-CoV-2 [16]) | Ratio EC50 (SARS-CoV-2 [17]) | Ratio EC50 (SARS-CoV-2 [18]) | Ratio EC50 (SARS-CoV-2 [19]) | Ratio EC50 (SARS-CoV-2 [20]) |
| --- | --- | --- | --- | --- | --- | --- | --- | --- | --- | --- | --- | --- | --- | --- | --- | --- | --- | --- | --- | --- |
| CCC(CC)COC(=O)[C@H](C)N[P@](=O)(OC[C@H]1O[C@@](C#N)(c2ccc3c(N)ncnn23)[C@H](O)[C@@H]1O)Oc1ccccc1 | 11 nM | 7 nM | 11 nM | 1.1 | 0.7 | 1.1 | 6 nM | 6 nM | 9 nM | 0.4 | 0.4 | 0.7 | – | – | – | – | – | – | – | – |
| CC(C)(C)[C@H](NC(=O)C(F)(F)F)C(=O)N1C[C@H]2[C@@H]([C@H]1C(=O)N[C@H](C#N)C[C@@H]1CCNC1=O)C2(C)C | 4500 nM | 3900 nM | 610 nM | – | – | – | 7300 nM | 8600 nM | 2900 nM | – | – | – | 80 nM | 8500 nM | 280 nM | 12000 nM | – | – | – | – |
| Cc1cc(C(=O)N[C@@H](Cc2cccc3ccccc23)C(=O)N[C@@H](CC(C)C)C(=O)N[C@H](C=O)C[C@@H]2CCCNC2=O)no1 | 130 nM | 170 nM | 390 nM | 0.6 | 0.9 | 2 | 80 nM | 150 nM | 490 nM | 0.2 | 0.5 | 1.5 | 360 nM | 170 nM | 680 nM | 150 nM | 1.8 | 0.8 | 2.1 | 0.5 |
